Data on 9 molecules can be found in patent publication EP4772560A1, “POLYESTER RESIN COMPRISING REGENERATED BIS(2-HYDROXYETHYL)TEREPHTHALATE, AND ARTICLE COMPRISING POLYESTER RESIN” (SK Chemicals Co., Ltd., priority 2023, dated 2025).

The series is described as follows: Thermal property drop index (TDI) calculated from HPLC peak area fractions of recycled BHET. The class given is physicochemical. Particulars: thermal property drop index = [DEG-ester-1] + [DEG-ester-2] × 2 + exp[HA-ester], from HPLC peak area fractions (%). Here is the method:
About 0.01 g of recycled bis(2-hydroxyethyl) terephthalate was diluted in about 20 ml of methanol, which was analyzed by high-performance liquid chromatography (HPLC) (model: Waters e2695, column: C18 (4.6 × 250 mm), 5 µm, UV detector: 242 nm, injection volume: 10 µl, eluent (gradient) A: H2O + H3PO4, B: acetonitrile) Thereafter, the peak area fractions (%) of the following components among the total peak area of HPLC were obtained. • MHET: monohydroxyethyl terephthalate • BHET: bis(2-hydroxyethyl) terephthalate, • DEG-ester-1: 2-hydroxyethyl[2-(2-hydroxyethoxy)ethyl] terephthalate • DEG-ester-2: bis[2-(2-hydroxyethoxy)ethyl]benzene-1,4-dicarboxylate • HA-ester: 2-hydroxyethyl(2-acetoxyethyl) terephthalate • Dimer: BHET dimer • Trimer: BHET trimer
Recycled bis(2-hydroxyethyl) terephthalate was subjected to HPLC analysis in the same manner as in section (1) above. The thermal property drop index (TDI) defined by the following equation was then calculated. TDI = [DEG−ester−1] + [DEG−ester−2] × 2 + exp^(∧) [HA−ester] [formula]
Here, DEG-ester-1 is the peak area fraction (%) of 2-hydroxyethyl[2-(2-hydroxyethoxy)ethyl] terephthalate, DEG-ester-2 is the peak area fraction (%) of bis[2-(2-hydroxyethoxy)ethyl]benzene-1,4-dicarboxylate, and HA-ester is the peak area fraction (%) of 2-hydroxyethyl(2-acetoxyethyl) terephthalate. It was calculated by taking only the numerical values excluding the units of these parameters.

SMILES strings stand for the structures.

As for `O=C(OCCO)c1ccc(C(=O)OCCO)cc1` [r-BHET A5, bis(2-hydroxyethyl) terephthalate], the TDI (listed as A5) was 2.55.

For `O=C(OCCO)c1ccc(C(=O)OCCO)cc1` [r-BHET A7, bis(2-hydroxyethyl) terephthalate], the TDI (listed as A7) is reported as 1.71.

Consider `O=C(OCCO)c1ccc(C(=O)OCCO)cc1` [r-BHET A6, bis(2-hydroxyethyl) terephthalate], for which the TDI (listed as A6) is 1.86.

As for `O=C(OCCO)c1ccc(C(=O)OCCO)cc1` [r-BHET B1, bis(2-hydroxyethyl) terephthalate, reference compound], the TDI (listed as B1) was 9.23.

`O=C(OCCO)c1ccc(C(=O)OCCO)cc1` [r-BHET A1, bis(2-hydroxyethyl) terephthalate]: the TDI (listed as A1) is 1.71.

For the molecule `O=C(OCCO)c1ccc(C(=O)OCCO)cc1` [r-BHET A4, bis(2-hydroxyethyl) terephthalate], the TDI (listed as A4) is on record as 1.86.

In the case of `O=C(OCCO)c1ccc(C(=O)OCCO)cc1` [r-BHET A2, bis(2-hydroxyethyl) terephthalate], the TDI (listed as A2) was 1.59.

In the case of `O=C(OCCO)c1ccc(C(=O)OCCO)cc1` [r-BHET B2, bis(2-hydroxyethyl) terephthalate, reference compound], the TDI (listed as B2) is 6.87.

Turning to `O=C(OCCO)c1ccc(C(=O)OCCO)cc1` [r-BHET A3, bis(2-hydroxyethyl) terephthalate], under “listed as A3”, the TDI was 1.74.
